# Laboratory results published in patent US11419856B2, “Pharmaceutical combinations for use in the treatment of neoplastic diseases” (Basilea Pharmaceutica International AG, priority 2017, dated 2022).
# Where two headings read alike, the source gives them in different places.
# Assays:
# MiaPaCa2 = experiment: Soft agar assay, IC50 of single agents in MiaPaCa2; format: cell-based; details: Homo sapiens, MIA PaCa-2
# Protocol: (§1) Example 5: Determination of Drug Interaction in Cell Lines by Soft Agar Assay
# (§2) The combination of BAL101553 with eribulin was tested in various cell lines by soft agar assay. Table 1 and Table 2 present the results according to coefficient of drug interaction based on colony number (Table 1) and total area of colonies (Table 2). In both cases the coefficient of drug interaction is calculated according to the formula described in Zhao et al., J Intercult Ethnopharmacol. 2014, 3(2): 68-72): (combination/untreated)/[(compound1/untreated)×(compound2/untreated)]
# MDA-MB-231 cells = experiment: Soft agar clonogenic (colony outgrowth) assay, anti-proliferative IC50; format: cell-based; details: Homo sapiens
# Protocol: Cells were plated in soft agar in 24-well plates according to the assay introduced by Hamburger & Salmon (Primary bioassay of human tumor stem cells, Science, 1977, 197:461-463). Each test well contained three layers of equal volume: 2 layers of semi-solid medium (bottom and top layer), and one layer of medium supernatant, with or without test compound (drug overlay on top of the semi-solid medium layer).
# The bottom agar layer consisted of 0.2 mL/well IMDM supplemented with 20% (v/v) fetal calf serum, penicillin/streptomycin 50 μg/mL and 0.75% (w/v) bacto agar (BD Biosciences, #214050). For the top agar layer, 10′000-20′000 cells were added to 0.2 mL of the same IMDM medium supplemented with 0.35% (w/v) bacto agar and plated onto the bottom layer. For the drug overlay, the test compounds were applied by continuous exposure in 0.2 mL IMDM medium on top of the two agar layers. The drug overlay was added directly after seeding the cells as 3-fold concentrated solution and changed carefully every 3-4 days. Every 24-well plate contained untreated controls and samples in duplicates. Cultures were incubated at 37° C. and 5% CO2 for 6-14 days. 24 hours prior to evaluation, vital colonies were stained with a sterile aqueous solution of 2-(4-iodophenyl)-3-(4-nitrophenyl)-5-phenyltetrazolium chloride (Sigma, #I-8377, 1 mg/mL, 100 μL/well) (Alley M C et al., Life Sci. 1982, 31:3071-3078) and were counted with an automatic image analysis system (GelCount, Oxford Optronix). IC50-values were determined by plotting compound concentrations versus relative colony counts. Relative drug effects were expressed by the maximum effect of the mean number of colonies in the treated wells in comparison to the control wells.
# HCC1395 = experiment: Soft agar assay, IC50 of single agents in HCC1395; format: cell-based; details: Homo sapiens
# Protocol: as §1, §2
# [1] = Pharmacokinetic profile in mouse plasma (LC-MS/MS), single agents vs combination; format: in vivo; details: non-tumor bearing mice; BAL101553 daily, eribulin every two days to steady state; 10 minutes to 24 hours; FIG. 6
# Protocol: Female NCI Ath/nu non-tumor bearing mice were treated either with BAL101553, eribulin or with a combination of BAL101553 and eribulin where eribulin was administered 30 minutes before BAL101553. Control animals received vehicle control. The mice were dosed until steady state was reached (BAL101553 was dosed daily and eribulin was dosed once every two days, the doses used for the combination-treatment matched those used in the monotherapy). Blood was taken from every animal according to a determined schedule covering a time window of 10 minutes to 24 hours, processed for plasma and subsequently analyzed by LC-MS/MS for the determination of BAL27862 (parent drug of BAL101553) and eribulin concentrations (ng/ml plasma). Data points represent mean values of ng/ml plasma concentration+/−SEM (n=3 animals).
# The in vivo combination of BAL101553 with eribulin in the TNBC xenograft model MDA-MB-231 led to a higher proportion of cures or tumor free animals than observed in the single agent treatment groups. […] The mice were either treated with BAL101553, eribulin or the combination thereof, and plasma concentrations of BAL27862 and eribulin at various time points were determined (FIG. 6).
# A549 = experiment: Soft agar assay, IC50 of single agents in A549; format: cell-based; details: Homo sapiens
# Protocol: as §1, §2
# HCT116 = experiment: Soft agar assay, IC50 of single agents in HCT116; format: cell-based; details: Homo sapiens, HCT-116
# Protocol: as §1, §2
# [2] = read-out: IC50 values in soft agar assay
# [3] = soft agar clonogenic assay, data not shown, read-out: anti-proliferative IC50
Compound,IC50 (MiaPaCa2) [nM],IC50 (MDA-MB-231 cells; [2]) [nM],IC50 (MDA-MB-231 cells; [3]) [nM],IC50 (HCC1395) [nM],"plasma concentrations, single agent vs combination [1]",IC50 (A549) [nM],IC50 (HCT116) [nM]
"N#CCCNc1nonc1-c1nc2ccccc2n1CC(=O)c1ccc(N)cc1 [BAL27862, 3-(4-{1-[2-(4-Amino-phenyl)-2-oxo-ethyl]-1H-benzoimidazol-2-yl}-furazan-3-ylamino)-propionitrile]",9,12,12,10,did not change significantly,25,18
"C=C1C[C@@H]2CC[C@@]34C[C@H]5O[C@H]6[C@@H](O3)[C@H]3O[C@H](CC[C@@H]3O[C@H]6[C@H]5O4)CC(=O)C[C@@H]3[C@@H](OC)[C@@H](C[C@H](O)CN)O[C@H]3C[C@H]3O[C@@H](CC[C@@H]1O2)C[C@@H](C)C3=C.CS(=O)(=O)O [Eribulin, (2R, 3R, 3aS, 7R, 8aS, 9S, 10aR, 11S, 12R, 13aR, 13bS, 15S, 18S, 21S, 24S, 26R, 28R, 29aS)-2-[(2S)-3-Amino-2-hydroxypropyl]-3-methoxy-26-methyl-20,27-dimethylidenehexacosahydro-11,15:18,21:24,28-triepoxy-7,9-ethano-12,15-methano-9H,15H-furo[3,2-i]furo[2′,3′:5,6]pyrano[4,3-b][1,4]dioxacyclopentacosin-5(4H)-one methanesulfonate (salt)]",0.5,0.111,0.1,0.5,did not change significantly,0.25,1
